In ChEMBL document CHEMBL1129856, “Novel optimised quinuclidine squalene synthase inhibitors” (Bioorg Med Chem Lett, 1997) one finds ED50, Ki and half-life data, which are given here for 14 compounds.

The species entered for data set [1] is Rattus norvegicus. Put plainly: Tested for inhibition of cholesterol biosynthesis in rat. Type of data set: functional.
For data set [2], the target named is T1, Squalene synthase (Homo sapiens, UniProt P37268).
T1 sequence (P37268 whole entry): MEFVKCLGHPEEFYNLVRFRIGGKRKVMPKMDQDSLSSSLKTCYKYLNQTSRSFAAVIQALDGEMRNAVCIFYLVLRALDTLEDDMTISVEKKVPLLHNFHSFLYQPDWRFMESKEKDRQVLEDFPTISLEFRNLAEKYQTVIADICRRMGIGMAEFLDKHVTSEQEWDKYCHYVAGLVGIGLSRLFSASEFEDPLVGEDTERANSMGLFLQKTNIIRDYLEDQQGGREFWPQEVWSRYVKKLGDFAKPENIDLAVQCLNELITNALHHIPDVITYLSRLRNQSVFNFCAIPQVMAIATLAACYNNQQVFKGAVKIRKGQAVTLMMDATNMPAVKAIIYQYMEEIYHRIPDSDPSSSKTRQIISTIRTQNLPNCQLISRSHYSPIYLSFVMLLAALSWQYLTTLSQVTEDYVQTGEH
Kind of data set: Tested for its inhibitory activity against human microsomal […] squalene synthase (SQS).

Data set [3] can be described thus: Plasma half life of hydrolysis of the compound. Type of data set: ADME, organism-based. The note with it: rat.
The species entered for data set [4] is Rattus norvegicus. Kind of data set: Tested for inhibition against rat cholesterol biosynthesis. Type of data set: functional.
Data set [5] deals with T2, Squalene synthase (Rattus norvegicus, UniProt Q02769).
T2 sequence (Q02769 whole entry): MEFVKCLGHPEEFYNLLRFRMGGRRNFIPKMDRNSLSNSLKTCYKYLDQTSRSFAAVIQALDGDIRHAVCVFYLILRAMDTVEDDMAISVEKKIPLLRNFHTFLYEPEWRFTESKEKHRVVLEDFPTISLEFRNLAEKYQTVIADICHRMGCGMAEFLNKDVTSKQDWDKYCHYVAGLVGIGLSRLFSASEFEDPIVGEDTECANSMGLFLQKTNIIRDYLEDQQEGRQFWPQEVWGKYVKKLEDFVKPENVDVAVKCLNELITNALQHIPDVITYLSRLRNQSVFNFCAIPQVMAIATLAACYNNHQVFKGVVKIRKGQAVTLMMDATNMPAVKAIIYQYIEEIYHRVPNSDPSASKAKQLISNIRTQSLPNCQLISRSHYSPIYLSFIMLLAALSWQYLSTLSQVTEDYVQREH
Put plainly: Tested for its inhibitory activity against rat microsomal […] squalene synthase (SQS).

`C=CCc1cc(CCC(=O)O)ccc1C#CC1(O)CN2CCC1CC2.Cl` (stereo not drawn) gave an ED50 in the data set listed under Rattus norvegicus [1] of 1.8 mg/kg.
For `C=CCc1cc(CCC(=O)OCC)ccc1C#CC1(O)CN2CCC1CC2` (stereo not drawn), the results for the Ki at Squalene synthase [2] and on Squalene synthase [5] were 43 nM and 6 nM, respectively. The same compound registered a half-life in data set [3] not above 5 min. In the data set filed under Rattus norvegicus [4], this compound gave an ED50 of 1.3 mg/kg.
Consider `C=CCc1cc(CCC(=O)OCCCCCC)ccc1C#CC1(O)CN2CCC1CC2` (stereo not drawn), for which, in the data set filed under Rattus norvegicus [1], it took a dose of 1.5 mg/kg to reach the 50% effect level (ED50). This compound showed a half-life in data set [3] not above 5 min.
Take `C=CCc1cc(CCC#N)ccc1C#CC1(O)CN2CCC1CC2` (stereo not drawn): the Ki on Squalene synthase [5] was more than 250 nM.
Same read-out and setting: next, `C=CCc1cc(CCC(N)=O)ccc1C#CC1(O)CN2CCC1CC2` (stereo not drawn): more than 250 nM.
The compound `C=CCc1cc(CCC(=O)OCc2ccccc2)ccc1C#CC1(O)CN2CCC1CC2` (stereo not drawn) displayed an ED50 in the data set listed under Rattus norvegicus [1] of 1.6 mg/kg. Further, in data set [3], the half-life is not above 5 min.
On Squalene synthase [5], `C=CCc1cc(CC(=O)OCC)ccc1C#CC1(O)CN2CCC1CC2` (stereo not drawn) gave a Ki of 100 nM.
Same read-out and setting: the value for `C=CCc1cc(CCC(=O)N(CC)CC)ccc1C#CC1(O)CN2CCC1CC2` (stereo not drawn) was more than 250 nM.
`C=CCc1cc(CCCCCC(=O)OC)ccc1C#CC1(O)CN2CCC1CC2` (stereo not drawn) had a 50% effective dose (ED50) in the data set filed under Rattus norvegicus [4] of 1.3 mg/kg. Moreover, on Squalene synthase [5], the affinity corresponds to a Ki of 20 nM.
In the data set filed under Rattus norvegicus [4], `C=CCc1cc(CCCC(=O)OC)ccc1C#CC1(O)CN2CCC1CC2` (stereo not drawn) had an ED50 of 1.3 mg/kg. Besides, on Squalene synthase [5], the affinity, expressed as Ki, was 2 nM.
In turn, `C=CCc1cc(CCC(=O)O)ccc1C#C[C@@]1(O)CN2CCC1CC2.Cl` (single isomer, unassigned) returned an ED50 in the data set listed under Rattus norvegicus [1] of 0.9 mg/kg.
Take `C=CCc1cc(CCC(=O)NC)ccc1C#CC1(O)CN2CCC1CC2` (stereo not drawn): the Ki at Squalene synthase [5] is more than 250 nM.
In turn, `C=CCc1cc(CCCCC(=O)OC)ccc1C#CC1(O)CN2CCC1CC2` (stereo not drawn) registered an ED50 in the data set filed under Rattus norvegicus [4] of 1.3 mg/kg. This compound also returned a Ki at Squalene synthase [5] of 8 nM.
Regarding `C=CCc1cc(CCC(=O)OC)ccc1C#CC1(O)CN2CCC1CC2` (stereo not drawn), it took a dose of 1.3 mg/kg to reach the 50% effect level in the data set listed under Rattus norvegicus [4] (ED50). For the same compound, the Ki at Squalene synthase [5] is 20 nM.

Broadly, the ED50 is the midpoint of the dose-response relation. A low value points to greater potency. For orientation: Ki means the dissociation constant of the complex between target and ligand, obtained from inhibition or displacement. By half-life is commonly meant the time in which the quantity being followed falls by half. Low readings indicate rapid decline, high ones slow decline.
